This is an account of results in PMC12716022, “Synthesis, In Silico, and Biological Evaluation of Non‐Hydroxamate Benzoic Acid–Based Derivatives as Potential Histone Deacetylase Inhibitors (HDACi)” (Chemistry & Biodiversity, 2025).

As a reminder, the IC50 is the concentration that gives 50% inhibition. The EC50 is the concentration needed to bring the measured effect to its halfway point.

Where two headings read alike, the source gives them in different places.

Data set [1] deals with peripheral T‐cell lymphoma (PTCL). As to conditions: cited from earlier work.
The next data set has as its system HepG2. Briefly: MTT in vitro cytotoxicity assay, HepG2. In kind it is cell-based. As to conditions: Homo sapiens, 72 h treatment, mean ± SD of three experiments in triplicates. The method, then:
(§1) The following human cell lines obtained from American Type Culture Collection (ATCC) were used to elucidate the antiproliferative effect of the newly synthesized compounds: HepG2 (HB‐8065; hepatocellular carcinoma), MCF‐7 (HTB‐22; breast cancer), K562 (CCL‐243; myeloid leukemia), and MCF‐10A (CRL‐10317; normal mammary cells). MCF‐7 and K562 cells were maintained in RPMI‐1640 media (Capricorn, Germany), whereas HepG2 cells were grown in high‐glucose DMEM (Capricorn, Germany). All media used were supplemented with 10% fetal bovine serum (Gibco, USA), 1% L‐glutamine (Gibco, USA), and 1% penicillin/streptomycin (Gibco, USA). MCF‐10A cells were cultured in DMEM/F12 media (Capricorn, Germany) supplemented with 5% horse serum (Gibco, USA), epidermal growth factor (EGF; Sigma, USA), insulin (Sigma, USA), hydrocortisone (Sigma, USA), and cholera toxin (Sigma, USA). Cells were maintained in humidified incubator with 5% CO2 at 37°C.
(§2) To evaluate the effects of the compounds on cell proliferation and determine their inhibitory concentration (IC50), eight different concentrations (0.03, 0.1, 0.3, 1, 3, 10, 30, and 100 µM) of each compound were tested. Cells were seeded at a density of 5 × 10^3 cells per well in a 96‐well plate and incubated for 24 h to allow cell attachment. After 72 h of treatment, the media was removed, and 0.5 µg/µL MTT (3‐[4,5‐dimethylthiazol‐2‐yl]‐2,5‐diphenyltetrazolium bromide) was added. After a 4‐h incubation period, DMSO was added for 30–45 min to dissolve the formazan crystals formed. The absorbance was measured at 570 nm using a plate reader (Biotek Synergy HT Multi‐Mode Microplate Reader, USA), and the IC50 values were calculated accordingly. The experiment was performed three times with triplicates for each concentration.

A further data set concerns MCF‐7. Briefly: MTT in vitro cytotoxicity assay, MCF‐7. It is filed as cell-based, human. The following applies: for IC50: MTT, 72 h treatment, mean ± SD of three experiments in triplicates.
In another data set the test system is K562. The data set is described as follows: MTT in vitro cytotoxicity assay, K562. In kind it is cell-based. As to conditions: Homo sapiens, 72 h treatment, mean ± SD of three experiments in triplicates. As for the experimental part:
as §1, §2

Data set [2] in a line: MTT in vitro cytotoxicity assay, normal MCF‐10A. As to conditions: MCF-10A normal mammary cells, 72 h treatment, normal human breast cells, mean ± SD. In kind it is cell-based.
The next data set concerns HepG2, MCF‐7, K562. Briefly: MTT cytotoxicity, single IC50 per compound given in Figure 5 (SAR). In kind it is cell-based. As to conditions: Homo sapiens; in the SAR figure; matches the mean of the HepG2, MCF‐7 and K562 IC50 of Table 1. The method, then:
as §2

In data set [3] the test system is zinc‐dependent class I and II HDAC. Briefly: HDAC‐Glo I/II assay in MCF‐7 cells. As to conditions: 2 h incubation, mean ± SD of two experiments in triplicates, read-out: Inhibition of HDAC enzyme activity EC50. It is filed as cell-based, human. As for the experimental part: HDAC activity in response to the new compounds was measured using the HDAC‐Glo I/II Assay and Screening System (Promega, USA), following the manufacturer's instructions. Briefly, MCF‐7 cells were seeded in a 96‐well plate at a density of 10 × 10^3 cells per well. After 24 h, the medium was replaced with serum‐free medium containing the different compounds. […] All compounds were tested at concentrations of 0.3, 3, 30, and 100 µM in triplicates. Cells were incubated with the drugs for 2 h before adding the HDAC‐Glo I/II reagent. The plate was gently mixed and incubated for 30 min. […] The experiment was run twice.

For data set [4], the system named is acetylated histone H3 and histone H4. The data set is described as follows: Immunoblotting of acetylated histones in MCF‐7 cells. It is filed as cell-based, human. The following applies: IC50 concentration, 72 h, versus untreated control. The method, then:
Immunoblotting was performed to evaluate changes in the levels of acetylated histone H3 and histone H4, the main targets of HDAC enzymes. […] Protein concentrations were measured using the Bradford protein assay (BioRad, USA).
Proteins were separated on a 12%–15% SDS–PAGE gel and transferred onto a 0.45 µm nitrocellulose membrane (Santa Cruz Biotechnology, USA). The membranes were incubated overnight at 4°C with the following primary antibodies: rabbit anti‐Histone H3 Acetyl Lys9 (1:500; Abbkine, USA), rabbit anti‐Histone H4 Acetyl Lys12 (1:500; Abbkine, USA), and mouse anti‐GAPDH (1:2000; Invitrogen, USA). Following overnight incubation, the membranes were washed three times with TBST and incubated with the appropriate HRP‐conjugated secondary antibodies (R&D Systems, USA). After a 1‐h incubation, the membranes were washed again with TBST, and protein signals were developed using Pierce ECL western blotting substrate (Thermo Scientific) and visualized using the FluorChem R system (Oxford, UK).
A general note: Immunoblotting shows a protein as a band on a membrane.

The subject of data set [5] is MCF‐7 breast cancer cells. Briefly: TUNEL apoptosis detection in MCF‐7 cells. It is filed as cell-based, human. As to conditions: MCF‐7, IC50 concentration, 72 h; for percentage of apoptotic cells: TUNEL, control 5.2%.
In the next data set the test system is caspase genes. The data set is described as follows: qRT‐PCR of caspase expression in MCF‐7 cells. In kind it is cell-based, human. As to conditions: MCF‐7, IC50, 72 h, versus control. As for the experimental part:
RNA was extracted using Trizol reagent, followed by purification with the Direct‐zol RNA Miniprep Extraction Kit (Zymo Research, USA). cDNA synthesis was performed using Takara PrimeScript RT Master Mix (Takara Bio Inc, USA). The qPCR mix was prepared as follows: 12.5 µL master mix (KAPA Biosystems, USA), 1 µL each of forward and reverse primers, 1 µL of cDNA, and nuclease‐free water to a final reaction volume of […]. qPCR amplification was carried out using the Line Gene 9680 BioER instrument with cycling parameters detailed as follows: activation stage at 50°C for 2 min; presoak stage at 95°C for 10 min; 40 cycles of denaturation at 95°C for 15 s, followed by annealing and extension at 60°C for 1 min; and finally, melting curve stage: 95°C for 15 s, 60°C for 15 s, 95°C for 15 s. Relative expression levels were analyzed using the ΔΔCt method, with fold changes normalized to housekeeping gene (GAPDH).

The test system of the next data set is caspase (3, 4, 8, or 9). The data set is described as follows: Colorimetric caspase enzymatic assay in MCF‐7 cells. As to conditions: MCF‐7, IC50, 72 h, versus control. In kind it is cell-based, human. As for the experimental part: Caspase activity assay was performed using the colorimetric caspase assay kit from Abbkine following the manufacturer's protocol. Briefly, cells were collected, washed, and lysed in the working cell lysis buffer provided. The lysates were incubated on ice for 20 min, centrifuged at 16 000 g at 4°C for 15 min, and the supernatants were transferred to fresh tubes. Aliquots were added to a 96‐well plate, mixed with the working reaction buffer and the appropriate caspase substrate, and incubated at 37°C for 2 h. Absorbance was then measured at 405 nm using the Biotek Synergy HT Multi‐Mode Microplate Reader (USA). The experiment was run twice.

A further data set has as its system multiple myeloma. Details: method as in PMID 24097867. As to conditions: cited from earlier work.
In data set [6] the test system is cutaneous T‐cell lymphoma (CTCL). As to conditions: cited from earlier work.
For data set [7] the following is noted: cited from earlier work.

Turning to `O=C(/C=C/c1cccc(S(=O)(=O)Nc2ccccc2)c1)NO` [Belinostat, belinostat], the overall response rate in [1] (PTCL) was 26%.

Turning to `O=C(CNc1ccc(C(=O)O)cc1Cl)NN=Cc1ccc(O)cc1` [Compound A3bn, 3‐Chloro‐4‐((2‐(2‐(4‐Hydroxybenzylidene) Hydrazinyl)‐2‐Oxoethyl) Amino)Benzoic Acid], the 50% inhibitory concentration (IC50) turned out to be 74.3 ± 8.3 µM with HepG2; 20.3 µM in the data set on MCF‐7 (Homo sapiens, MCF7, 72 h); 39.2 ± 2.8 µM in the data set on MCF‐7; 42 ± 5.3 µM in the data set with K562; 51.8 µM in the data set on HepG2, MCF‐7, K562. Further, the “Selectivity index (SI)” value in the data set on MCF‐7 (IC50 MCF‐10A divided by IC50 MCF‐7) is listed as 8. For the same molecule, in data set [2], inhibition was half-maximal at 315 ± 35.3 µM (IC50 at 72 h). In addition, in data set [3], the EC50 was found to be 3.1 ± 0.3 µM. Moreover, the “acetylation of histones H3 and H4 (western blot)” value in data set [4] is “inhibited the deacetylation of H3 and H4”. Further, in data set [5], the “percentage of apoptotic cells” value stood at 12.7%. Also, the “caspase gene expression (mRNA)” value in the data set on caspase genes is reported as “increased the expression of caspase 8 gene”. For the same molecule, in the data set with caspase (3, 4, 8, or 9), the “caspase activation at the protein level” value was “activating caspase 8”.

As to `Cc1[nH]c2ccccc2c1CCNCc1ccc(/C=C/C(=O)NO)cc1` [Panobinostat, panobinostat], the response rate in the data set with multiple myeloma is given as 27%.

`C/C=C1\NC(=O)[C@H]2CSSCC/C=C/[C@H](CC(=O)N[C@H](C(C)C)C(=O)N2)OC(=O)[C@H](C(C)C)NC1=O` [Romidepsin, romidepsin]: the overall response rate is given as 34% in [6] (CTCL) and 25% in data set [1] (peripheral T‐cell lymphoma (PTCL)).

Take `O=C(CCCCCCC(=O)Nc1ccccc1)NO` [SAHA, vorinostat]: the half-maximal inhibitory concentration (IC50) in the data set on HepG2 turned out to be 13.8 ± 5.1 µM. Further, the half-inhibitory concentration (IC50) with K562 is 36.1 ± 9.7 µM. Besides, in [5], the “increase of percentage of apoptotic cells versus control” value turned out to be 250% and the “percentage of apoptotic cells” value was determined as 18.4%. For the same molecule, the “caspase gene expression (mRNA)” value with caspase genes is “increased the expression of caspase 3, 8, and 9 genes”. In addition, the “caspase activation at the protein level” value in the data set with caspase (3, 4, 8, or 9) was “activated caspase 3 and 9”. In data set [7], the “biopharmaceutics classification system (BCS) class” value is recorded as “Class IV”, the log p was 1.9 and the water solubility entry was “about 0.19 mg/mL”. Besides, the response rate in data set [6] (cutaneous T‐cell lymphoma (CTCL)) is recorded as 30%.
